Data taken from publication PMC4168798 (ACS Chemical Biology, 2014).

Key:
Mcl-1 [1] = target: T1, Mcl-1 (Homo sapiens, UniProt Q07820); assay: direct fluorescence anisotropy binding
KSBcl-2 = target: T2, KSBcl-2 (Human herpesvirus 8 type P, UniProt F5HGJ3); assay: direct fluorescence anisotropy binding; design: species or system Kaposi sarcoma herpesvirus
T2 sequence (F5HGJ3 1-150): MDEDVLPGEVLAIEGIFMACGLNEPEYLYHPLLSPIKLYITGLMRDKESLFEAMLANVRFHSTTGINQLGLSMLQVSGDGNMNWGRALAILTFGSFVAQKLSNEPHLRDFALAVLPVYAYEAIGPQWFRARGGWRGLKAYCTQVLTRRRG

Mcl-1 [2] = target: T1, Mcl-1; assay: competition fluorescence anisotropy vs fluoresceinated Bim; conditions: biochemical competition binding experiments; four other human Bcl-2 paralogs
Bcl-xL [3] = target: Bcl-xL (Homo sapiens, UniProt Q07817); assay: direct fluorescence anisotropy binding
Bfl-1 [4] = target: T3, Bfl-1 (Homo sapiens, UniProt Q16548); assay: direct fluorescence anisotropy binding
T3 sequence (Q16548 1-151 limits assumed): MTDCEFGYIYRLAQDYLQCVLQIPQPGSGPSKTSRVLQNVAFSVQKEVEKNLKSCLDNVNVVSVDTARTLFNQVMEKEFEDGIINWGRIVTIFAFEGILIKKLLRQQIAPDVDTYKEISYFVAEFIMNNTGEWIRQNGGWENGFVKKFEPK

Bcl-w [5] = target: T4, Bcl-w (Homo sapiens, UniProt Q92843); assay: direct fluorescence anisotropy binding
T4 sequence (Q92843 1-164 limits assumed): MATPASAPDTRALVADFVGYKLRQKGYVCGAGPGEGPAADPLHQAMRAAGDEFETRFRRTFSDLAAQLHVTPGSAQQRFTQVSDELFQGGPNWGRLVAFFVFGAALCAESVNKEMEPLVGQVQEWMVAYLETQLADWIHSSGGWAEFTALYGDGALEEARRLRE

Bcl-2 [6] = target: Bcl-2 (Homo sapiens, UniProt P10415); assay: direct fluorescence anisotropy binding
Bcl-xL [7] = conditions: NoxaA BH3 peptide from murine Noxa; cited from earlier work
Bcl-w [8] = conditions: NoxaA BH3 peptide from murine Noxa; cited from earlier work
Bfl-1 [9] = conditions: NoxaA BH3 peptide from murine Noxa; cited from earlier work
Bcl-2 [10] = conditions: NoxaA BH3 peptide from murine Noxa; cited from earlier work

T1 sequence (Q07820 172-327 limits assumed): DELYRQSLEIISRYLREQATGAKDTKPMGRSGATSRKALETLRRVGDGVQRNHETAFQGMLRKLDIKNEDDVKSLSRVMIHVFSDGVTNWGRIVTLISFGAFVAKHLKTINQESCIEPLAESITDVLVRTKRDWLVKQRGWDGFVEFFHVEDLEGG
Chain of Bcl-2 (Homo sapiens, UniProt P10415) (P10415 1-217 limits assumed): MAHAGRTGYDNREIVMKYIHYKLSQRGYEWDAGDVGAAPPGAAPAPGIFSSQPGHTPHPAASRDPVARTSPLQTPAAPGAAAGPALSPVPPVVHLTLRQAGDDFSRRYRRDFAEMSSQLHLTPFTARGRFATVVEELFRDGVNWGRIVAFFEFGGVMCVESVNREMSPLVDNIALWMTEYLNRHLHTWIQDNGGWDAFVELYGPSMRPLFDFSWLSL
Chain of Bcl-xL (Homo sapiens, UniProt Q07817) (Q07817 1-209 limits assumed): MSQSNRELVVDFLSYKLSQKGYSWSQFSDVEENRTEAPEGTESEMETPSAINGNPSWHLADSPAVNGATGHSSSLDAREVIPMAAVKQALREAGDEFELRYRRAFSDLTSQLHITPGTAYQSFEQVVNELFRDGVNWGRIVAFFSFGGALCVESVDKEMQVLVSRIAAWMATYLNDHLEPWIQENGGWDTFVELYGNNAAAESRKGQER

CC[C@H](C)[C@H](NC(=O)[C@H](CCCNC(=N)N)NC(=O)[C@H](CCCNC(=N)N)NC(=O)[C@H](CC(C)C)NC(=O)[C@H](CCC(=O)O)NC(=O)[C@H](CCC(N)=O)NC(=O)[C@@H](NC(=O)[C@H](CCSC)NC(=O)[C@H](Cc1c[nH]c2ccccc12)NC(=O)[C@@H](NC(=O)[C@H](CCC(=O)O)NC(=O)[C@@H]1CCCN1C(=O)[C@@H](N)CCCNC(=N)N)[C@@H](C)CC)[C@@H](C)O)C(=O)NCC(=O)N[C@@H](CC(=O)O)C(=O)N[C@@H](CCC(=O)O)C(=O)N[C@@H](Cc1ccccc1)C(=O)N[C@@H](CC(N)=O)C(=O)N[C@@H](C)C(=O)N[C@@H](Cc1ccc(O)cc1)C(=O)N[C@@H](Cc1ccc(O)cc1)C(=O)N[C@@H](C)C(=O)N[C@@H](CCCNC(=N)N)C(N)=O [Bim_A2eT_I2dM]
Kd (Mcl-1 [1]): < 1 nM

CC[C@H](C)[C@H](NC(=O)[C@H](CCC(=O)O)NC(=O)[C@H](CC(=O)O)NC(=O)CNC(=O)[C@H](CC(C)C)NC(=O)[C@H](CCCNC(=N)N)NC(=O)[C@H](CCC(N)=O)NC(=O)[C@H](CC(C)C)NC(=O)[C@H](CO)NC(=O)[C@H](CCC(N)=O)NC(=O)[C@@H](NC(=O)[C@H](CC(C)C)NC(=O)[C@H](Cc1c[nH]c2ccccc12)NC(=O)[C@@H](NC(=O)[C@H](CCC(=O)O)NC(=O)[C@@H]1CCCN1C(=O)[C@H](CCCNC(=N)N)NC(C)=O)[C@@H](C)CC)[C@@H](C)O)C(=O)N[C@@H](CC(N)=O)C(=O)N[C@@H](C)C(=O)N[C@@H](Cc1ccc(O)cc1)C(=O)N[C@@H](Cc1ccc(O)cc1)C(=O)N[C@@H](C)C(=O)N[C@@H](CCCNC(=N)N)C(N)=O [MS2]
Kd (KSBcl-2): < 1 nM

CC[C@H](C)[C@H](NC(=O)[C@H](CCC(=O)O)NC(=O)[C@H](CC(=O)O)NC(=O)CNC(=O)[C@H](CC(C)C)NC(=O)[C@H](CCCNC(=N)N)NC(=O)[C@H](CCCNC(=N)N)NC(=O)[C@H](CC(C)C)NC(=O)CNC(=O)[C@H](CCC(N)=O)NC(=O)[C@@H](NC(=O)[C@H](CCSC)NC(=O)[C@H](Cc1c[nH]c2ccccc12)NC(=O)[C@@H](NC(=O)[C@H](CCC(=O)O)NC(=O)[C@@H]1CCCN1C(=O)[C@H](CCCNC(=N)N)NC(C)=O)[C@@H](C)CC)[C@@H](C)O)C(=O)N[C@@H](CC(N)=O)C(=O)N[C@@H](C)C(=O)N[C@@H](Cc1ccc(O)cc1)C(=O)N[C@@H](Cc1ccc(O)cc1)C(=O)N[C@@H](C)C(=O)N[C@@H](CCCNC(=N)N)C(N)=O [MS1]
specificity for Mcl-1 over Bcl-xL, Bcl-2, Bcl-w and Bfl-1 (Mcl-1 [2]): ≥ 40 fold
Kd (KSBcl-2): 2.9 ± 0.68 nM

CC[C@H](C)[C@H](NC(=O)[C@H](CCCNC(=N)N)NC(=O)[C@H](CCCNC(=N)N)NC(=O)[C@H](CC(C)C)NC(=O)[C@H](CCC(=O)O)NC(=O)[C@H](CCC(N)=O)NC(=O)[C@@H](NC(=O)[C@@H](NC(=O)[C@H](Cc1c[nH]c2ccccc12)NC(=O)[C@@H](NC(=O)[C@H](CCC(=O)O)NC(=O)[C@@H]1CCCN1C(=O)[C@@H](N)CCCNC(=N)N)[C@@H](C)CC)[C@@H](C)CC)[C@@H](C)O)C(=O)NCC(=O)N[C@@H](CC(=O)O)C(=O)N[C@@H](CCC(=O)O)C(=O)N[C@H](C(=O)N[C@@H](CC(N)=O)C(=O)N[C@@H](C)C(=O)N[C@@H](Cc1ccc(O)cc1)C(=O)N[C@@H](Cc1ccc(O)cc1)C(=O)N[C@@H](C)C(=O)N[C@@H](CCCNC(=N)N)C(N)=O)[C@@H](C)CC [Bim_A2eT_F4aI]
Kd (Bcl-xL [3]): 110 ± 62 nM
Kd (Bfl-1 [4]): 7.9 ± 2.1 nM
Kd (Bcl-w [5]): 16 ± 4.1 nM
Kd (Bcl-2 [6]): 150 ± 43 nM
Kd (Mcl-1 [1]): < 1 nM

CC[C@H](C)[C@H](NC(=O)[C@H](CCCNC(=N)N)NC(=O)[C@H](CCCNC(=N)N)NC(=O)[C@H](CC(C)C)NC(=O)[C@H](CCC(=O)O)NC(=O)[C@H](CCC(N)=O)NC(=O)[C@@H](NC(=O)[C@@H](NC(=O)[C@H](Cc1c[nH]c2ccccc12)NC(=O)[C@@H](NC(=O)[C@H](CCC(=O)O)NC(=O)[C@@H]1CCCN1C(=O)[C@@H](N)CCCNC(=N)N)[C@@H](C)CC)[C@@H](C)CC)[C@@H](C)O)C(=O)NCC(=O)N[C@@H](CC(=O)O)C(=O)N[C@@H](CCC(=O)O)C(=O)N[C@@H](Cc1ccccc1)C(=O)N[C@@H](CC(N)=O)C(=O)N[C@@H](C)C(=O)N[C@@H](Cc1ccc(O)cc1)C(=O)N[C@@H](Cc1ccc(O)cc1)C(=O)N[C@@H](C)C(=O)N[C@@H](CCCNC(=N)N)C(N)=O [Bim_A2eT]
Kd (Mcl-1 [1]): < 1 nM

CC[C@H](C)[C@H](NC(=O)[C@H](CCCCN)NC(=O)[C@H](CCCNC(=N)N)NC(=O)[C@H](CC(C)C)NC(=O)[C@H](CCC(N)=O)NC(=O)[C@H](C)NC(=O)[C@H](C)NC(=O)[C@H](Cc1ccccc1)NC(=O)[C@H](CCC(=O)O)NC(=O)[C@@H]1CCCN1C(=O)[C@@H]1CCCN1C(=O)[C@H](CC(C)C)NC(=O)[C@H](CCC(=O)O)NC(=O)[C@H](C)NC(C)=O)C(=O)NCC(=O)N[C@@H](CC(=O)O)C(=O)N[C@@H](CCCCN)C(=O)N[C@H](C(=O)N[C@@H](Cc1ccc(O)cc1)C(=O)N[C@@H](CS)C(N)=O)C(C)C [NoxaA]
no binding to Bcl-xL up to (Bcl-xL [7]): > 2500 nM
no binding to Bcl-w up to (Bcl-w [8]): > 2500 nM
no binding to Bfl-1 up to (Bfl-1 [9]): > 2500 nM
no binding to Bcl-2 up to (Bcl-2 [10]): > 2500 nM

CC[C@H](C)[C@H](NC(=O)[C@H](CCC(=O)O)NC(=O)[C@@H]1CCCN1C(=O)[C@@H](N)CCCNC(=N)N)C(=O)N[C@@H](Cc1c[nH]c2ccccc12)C(=O)N[C@H](C(=O)N[C@H](C(=O)N[C@@H](CCC(N)=O)C(=O)N[C@@H](CCC(=O)O)C(=O)N[C@@H](CC(C)C)C(=O)N[C@@H](CCCNC(=N)N)C(=O)N[C@@H](CCCNC(=N)N)C(=O)N[C@@H](CC(C)C)C(=O)NCC(=O)N[C@@H](CC(=O)O)C(=O)N[C@@H](CCC(=O)O)C(=O)N[C@@H](Cc1ccccc1)C(=O)N[C@@H](CC(N)=O)C(=O)N[C@@H](C)C(=O)N[C@@H](Cc1ccc(O)cc1)C(=O)N[C@@H](Cc1ccc(O)cc1)C(=O)N[C@@H](C)C(=O)N[C@@H](CCCNC(=N)N)C(N)=O)[C@@H](C)O)[C@@H](C)CC [Bim_A2eT_I3dL]
Kd (Mcl-1 [1]): < 1 nM

CC[C@H](C)[C@H](NC(=O)[C@H](CCC(=O)O)NC(=O)[C@H](CC(=O)O)NC(=O)CNC(=O)[C@H](CC(C)C)NC(=O)[C@H](CCCNC(=N)N)NC(=O)[C@H](CCC(N)=O)NC(=O)[C@H](CC(C)C)NC(=O)[C@H](Cc1c[nH]cn1)NC(=O)[C@H](CCC(N)=O)NC(=O)[C@@H](NC(=O)[C@H](CC(C)C)NC(=O)[C@H](Cc1c[nH]c2ccccc12)NC(=O)[C@@H](NC(=O)[C@H](CCC(=O)O)NC(=O)[C@@H]1CCCN1C(=O)[C@@H](N)CCCNC(=N)N)[C@@H](C)CC)[C@@H](C)O)C(=O)N[C@@H](CC(N)=O)C(=O)N[C@@H](C)C(=O)N[C@@H](Cc1ccc(O)cc1)C(=O)N[C@@H](Cc1ccc(O)cc1)C(=O)N[C@@H](C)C(=O)N[C@@H](CCCNC(=N)N)C(N)=O [MS3]
Kd (Bcl-2 [6]): > 3000 nM
Kd (Mcl-1 [1]): 2 ± 1.2 nM
